By EC50 is commonly meant the concentration that produces a half-maximal response.

Structures are written as SMILES.

The first experiment deals with recombinant NL4-3 virus (Renilla luciferase in nef, Gag P373S; NLRluc) in MT-2 cells. The experiment is described as follows: whole plant or invertebrate. Format: cell-based, HIV. The note with it: Renilla, NL43. In outline: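 First, reporter virus was generated in 293T cells and titered on MT-2 cells. Next, MT-2 cells were infected in the presence of serial compound dilutions for 4-5 days. Finally, cells were lysed and luciferase activity was measured to quantify inhibition.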
As to `C=C(C)[C@@H]1CC[C@]2(NCCN3CCS(=O)(=O)CC3)CC[C@]3(C)[C@H](CC[C@@H]4[C@@]5(C)CC=C(c6ccc(C(=O)O[C@H]7O[C@H](C(=O)O)[C@@H](O)[C@H](O)[C@H]7O)cc6)C(C)(C)[C@@H]5CC[C@]43C)[C@@H]12` [Example B7B, (2S,3S,4S,5R,6R)-6-((4-((1R,3aS,5aR,5bR,7aR,11aS,11bR,13aR,13bR)-3a-((2-(1,1-dioxidothiomorpholino)ethyl)amino)-5a,5b,8,8,11a-pentamethyl-1-(prop-1-en-2-yl)-2,3,3a,4,5,5a,5b,6,7,7a,8,11,11a,11b,12,13,13a,13b-octadecahydro-1H-cyclopenta[a]chrysen-9-yl)benzoyl)oxy)-3,4,5-trihydroxytetrahydro-2H-pyran-2-carboxylic acid], the EC50 was less than 100 nM.

On to `C=C(C)[C@@H]1CC[C@]2(NCCNC3CCS(=O)(=O)C3)CC[C@]3(C)[C@H](CC[C@@H]4[C@@]5(C)CC=C(c6ccc(C(=O)O)cc6)C(C)(C)[C@@H]5CC[C@]43C)[C@@H]12` (stereo partly drawn) [Example B8, 4-((1R,3aS,5aR,5bR,7aR,11aS,11bR,13aR,13bR)-3a-((2-((1,1-dioxidotetrahydrothiophen-3-yl)amino)ethyl)amino)-5a,5b,8,8,11a-pentamethyl-1-(prop-1-en-2-yl)-2,3,3a,4,5,5a,5b,6,7,7a,8,11,11a,11b,12,13,13a,13b-octadecahydro-1H-cyclopenta[a]chrysen-9-yl)benzoic acid], for which the EC50 is less than 100 nM.

The same experiment, now with this note: Renilla, NL43, luciferase activity in cells infected for 4-5 days with NLRluc recombinants, serial dilutions of inhibitor; class symbols (key in Table 1); read-out: EC50.
As for `CC(C)[C@@H]1CC[C@]2(NCCN3CCS(=O)(=O)CC3)CC[C@]3(C)[C@H](CC[C@@H]4[C@@]5(C)CC[C@H](c6ccc(C(=O)O)cc6)C(C)(C)[C@@H]5CC[C@]43C)[C@@H]12` [Example B2, 4-((1S,3aS,5aR,5bR,7aS,9S,11aS,11bR,13aR,13bR)-3a-((2-(1,1-dioxidothiomorpholino)ethyl)amino)-1-isopropyl-5a,5b,8,8,11a-pentamethylicosahydro-1H-cyclopenta[a]chrysen-9-yl)benzoic acid], the EC50 is less than 100 nM.

`CC(C)[C@@H]1CC[C@]2(N)CC[C@]3(C)[C@H](CC[C@@H]4[C@@]5(C)CC[C@H](c6ccc(C(=O)O)cc6)C(C)(C)[C@@H]5CC[C@]43C)[C@@H]12` [Example B3, 4-((1S,3aS,5aR,5bR,7aS,9S,11aS,11bR,13aR,13bR)-3a-amino-1-isopropyl-5a,5b,8,8,11a-pentamethylicosahydro-1H-cyclopenta[a]chrysen-9-yl)benzoic acid]: the EC50 was less than 100 nM.

Turning to `CC(C)[C@@H]1CC[C@]2(NCCN3CCOCC3)CC[C@]3(C)[C@H](CC[C@@H]4[C@@]5(C)CC[C@H](c6ccc(C(=O)O)cc6)C(C)(C)[C@@H]5CC[C@]43C)[C@@H]12` [Example B4], the EC50 was less than 100 nM.

On to `CC(C)[C@@H]1CC[C@]2(NCCN(C)C)CC[C@]3(C)[C@H](CC[C@@H]4[C@@]5(C)CC[C@H](c6ccc(C(=O)O)cc6)C(C)(C)[C@@H]5CC[C@]43C)[C@@H]12` [Example B5, 4-((1S,3aS,5aR,5bR,7aS,9S,11aS,11bR,13aR,13bR)-3a-((2-(dimethylamino)ethyl)amino)-1-isopropyl-5a,5b,8,8,11a-pentamethylicosahydro-1H-cyclopenta[a]chrysen-9-yl)benzoic acid], for which the EC50 was less than 100 nM.

As to `CC(C)[C@@H]1CC[C@]2(N(CCN(C)C)CCN(C)C)CC[C@]3(C)[C@H](CC[C@@H]4[C@@]5(C)CC[C@H](c6ccc(C(=O)O)cc6)C(C)(C)[C@@H]5CC[C@]43C)[C@@H]12` [Example B6, 4-((1S,3aS,5aR,5bR,7aS,9S,11aS,11bR,13aR,13bR)-3a-(bis(2-(dimethylamino)ethyl)amino)-1-isopropyl-5a,5b,8,8,11a-pentamethylicosahydro-1H-cyclopenta[a]chrysen-9-yl)benzoic acid], the EC50 is less than 100 nM.

Consider `C=C(C)[C@@H]1CC[C@]2(NCCN3CCS(=O)(=O)CC3)CC[C@]3(C)[C@H](CC[C@@H]4[C@@]5(C)CC=C(c6ccc(C(=O)O[C@H]7O[C@H](C(=O)OCc8ccccc8)[C@@H](O)[C@H](O)[C@H]7O)cc6)C(C)(C)[C@@H]5CC[C@]43C)[C@@H]12` [Example B7A, (2S,3S,4S,5R,6R)-benzyl 6-((4-((1R,3aS,5aR,5bR,7aR,11aS,11bR,13aR,13bR)-3a-((2-(1,1-dioxidothiomorpholino)ethyl)amino)-5a,5b,8,8,11a-pentamethyl-1-(prop-1-en-2-yl)-2,3,3a,4,5,5a,5b,6,7,7a,8,11,11a,11b,12,13,13a,13b-octadecahydro-1H-cyclopenta[a]chrysen-9-yl)benzoyl)oxy)-3,4,5-trihydroxytetrahydro-2H-pyran-2-carboxylate], for which the EC50 was less than 100 nM.

On to `CNC(=O)CN[C@]12CC[C@@H](C(C)C)[C@@H]1[C@H]1CC[C@@H]3[C@@]4(C)CC[C@H](c5ccc(C(=O)O)cc5)C(C)(C)[C@@H]4CC[C@@]3(C)[C@]1(C)CC2` [Example B10, 4-((1S,3aS,5aR,5bR,7aS,9S,11aS,11bR,13aR,13bR)-1-isopropyl-5a,5b,8,8,11a-pentamethyl-3a-((2-(methylamino)-2-oxoethyl)amino)icosahydro-1H-cyclopenta[a]chrysen-9-yl)benzoic acid], for which the half-maximal effective concentration (EC50) was less than 100 nM.

Regarding `CC(C)[C@@H]1CC[C@]2(NCCCN3CCOCC3)CC[C@]3(C)[C@H](CC[C@@H]4[C@@]5(C)CC=C(c6ccc(C(=O)O)cc6)C(C)(C)[C@@H]5CC[C@]43C)[C@@H]12` [Example B11, 4-((1S,3aS,5aR,5bR,7aR,11aS,11bR,13aR,13bR)-1-isopropyl-5a,5b,8,8,11a-pentamethyl-3a-((3-morpholinopropyl)amino)-2,3,3a,4,5,5a,5b,6,7,7a,8,11,11a,11b,12,13,13a,13b-octadecahydro-1H-cyclopenta[a]chrysen-9-yl)benzoic acid], the EC50 was less than 100 nM.

Take `C=C(C)[C@@H]1CC[C@]2(NCCC(=O)O)CC[C@]3(C)[C@H](CC[C@@H]4[C@@]5(C)CC=C(c6ccc(C(=O)O)cc6)C(C)(C)[C@@H]5CC[C@]43C)[C@@H]12` [Example B12, 4-((1R,3aS,5aR,5bR,7aR,11aS,11bR,13aR,13bR)-3a-((2-carboxyethyl)amino)-5a,5b,8,8,11a-pentamethyl-1-(prop-1-en-2-yl)-2,3,3a,4,5,5a,5b,6,7,7a,8,11,11a,11b,12,13,13a,13b-octadecahydro-1H-cyclopenta[a]chrysen-9-yl)benzoic acid]: the half-maximal effective concentration (EC50) is less than 100 nM.

Take `C=C(C)[C@@H]1CC[C@]2(NCCN3CCN(C(=O)OC(C)(C)C)CC3)CC[C@]3(C)[C@H](CC[C@@H]4[C@@]5(C)CC=C(c6ccc(C(=O)O)cc6)C(C)(C)[C@@H]5CC[C@]43C)[C@@H]12` [Example B13, 4-((1R,3aS,5aR,5bR,7aR,11aS,11bR,13aR,13bR)-3a-((2-(4-(tert-butoxycarbonyl)piperazin-1-yl)ethyl)amino)-5a,5b,8,8,11a-pentamethyl-1-(prop-1-en-2-yl)-2,3,3a,4,5,5a,5b,6,7,7a,8,11,11a,11b,12,13,13a,13b-octadecahydro-1H-cyclopenta[a]chrysen-9-yl)benzoic acid]: the EC50 is less than 100 nM.

For the molecule `C=C(C)[C@@H]1CC[C@]2(NCCN3CCC(S(C)(=O)=O)CC3)CC[C@]3(C)[C@H](CC[C@@H]4[C@@]5(C)CC=C(c6ccc(C(=O)O)cc6)C(C)(C)[C@@H]5CC[C@]43C)[C@@H]12` [Example B14, 4-((1R,3aS,5aR,5bR,7aR,11aS,11bR,13aR,13bR)-5a,5b,8,8,11a-pentamethyl-3a-((2-(4-(methylsulfonyl)piperidin-1-yl)ethyl)amino)-1-(prop-1-en-2-yl)-2,3,3a,4,5,5a,5b,6,7,7a,8,11,11a,11b,12,13,13a,13b-octadecahydro-1H-cyclopenta[a]chrysen-9-yl)benzoic acid], the concentration giving a half-maximal response (EC50) is less than 100 nM.

With `C=C(C)[C@@H]1CC[C@]2(NCCN3CCN(S(C)(=O)=O)CC3)CC[C@]3(C)[C@H](CC[C@@H]4[C@@]5(C)CC=C(c6ccc(C(=O)O)cc6)C(C)(C)[C@@H]5CC[C@]43C)[C@@H]12` [Example B15, 4-((1R,3aS,5aR,5bR,7aR,11aS,11bR,13aR,13bR)-5a,5b,8,8,11a-pentamethyl-3a-((2-(4-(methylsulfonyl)piperazin-1-yl)ethyl)amino)-1-(prop-1-en-2-yl)-2,3,3a,4,5,5a,5b,6,7,7a,8,11,11a,11b,12,13,13a,13b-octadecahydro-1H-cyclopenta[a]chrysen-9-yl)benzoic acid], the EC50 is less than 100 nM.

Consider `CC(C)[C@@H]1CC[C@]2(NCCN3CCN(S(C)(=O)=O)CC3)CC[C@]3(C)[C@H](CC[C@@H]4[C@@]5(C)CC[C@H](c6ccc(C(=O)O)cc6)C(C)(C)[C@@H]5CC[C@]43C)[C@@H]12` [Example B16, 4-((1S,3aS,5aR,5bR,7aS,9S,11aS,11bR,13aR,13bR)-1-isopropyl-5a,5b,8,8,11a-pentamethyl-3a-((2-(4-(methylsulfonyl)piperazin-1-yl)ethyl)amino)icosahydro-1H-cyclopenta[a]chrysen-9-yl)benzoic acid], for which the EC50 was less than 100 nM.

Consider `C=C(C)[C@@H]1CC[C@]2(NCCN3CC4(COC4)C3)CC[C@]3(C)[C@H](CC[C@@H]4[C@@]5(C)CC=C(c6ccc(C(=O)O)cc6)C(C)(C)[C@@H]5CC[C@]43C)[C@@H]12` [Example B17, 4-((1R,3aS,5aR,5bR,7aR,11aS,11bR,13aR,13bR)-3a-((2-(2-oxa-6-azaspiro[3.3]heptan-6-yl)ethyl)amino)-5a,5b,8,8,11a-pentamethyl-1-(prop-1-en-2-yl)-2,3,3a,4,5,5a,5b,6,7,7a,8,11,11a,11b,12,13,13a,13b-octadecahydro-1H-cyclopenta[a]chrysen-9-yl)benzoic acid], for which the EC50 was less than 100 nM.

Staying with this experiment, now noted: Renilla, NL43, luciferase activity in cells infected for 4-5 days with NLRluc recombinants, serial dilutions of inhibitor; numeric values; read-out: EC50.
In the case of `CC(C)NC(=O)CN[C@]12CC[C@@H](C(C)C)[C@@H]1[C@H]1CC[C@@H]3[C@@]4(C)CC[C@H](c5ccc(C(=O)O)cc5)C(C)(C)[C@@H]4CC[C@@]3(C)[C@]1(C)CC2` [Example B9], the concentration giving a half-maximal response (EC50) amounted to 10 nM.
